Source: ChEMBL document CHEMBL1154782, “Discovery of Trp-His and His-Arg analogues as new structural classes of short antimicrobial peptides” (J Med Chem, 2009)
Converted amounts (≈) assume the structure as drawn. Where a SMILES comes first, the peptide text is derived from it. The star is where a group is joined. Boc = CC(C)(C)OC(=O)*; NHBn = c1ccc(CN*)cc1

How the values were obtained:
[1] = test system: Escherichia coli; test: Antibacterial activity against Escherichia coli ATCC 35218 after 15 to 18 hrs under aerobic condition by modified broth microdilution method; type: functional
[2] = test system: L929; test: Cytotoxicity against mouse L929 cells up to 200 ug/mL after 5 days by MTT assay; type: cell-based; conditions: l929, 120 h
[3] = test system: Pseudomonas aeruginosa; test: Antibacterial activity against Pseudomonas aeruginosa ATCC 9027 after 15 to 18 hrs under aerobic condition by modified broth microdilution method; type: functional
[4] = test system: Candida albicans; test: Antifungal activity against Candida albicans ATCC 10231 after 15 to 18 hrs under aerobic condition by modified broth microdilution method; type: functional
[5] = test system: Klebsiella pneumoniae; test: Antibacterial activity against Klebsiella pneumoniae ATCC 700603 after 15 to 18 hrs under aerobic condition by modified broth microdilution method; type: functional
[6] = test system: Staphylococcus epidermidis; test: Antibacterial activity against methicillin-resistant Staphylococcus epidermidis DSM 50160384 after 15 to 18 hrs under aerobic condition by modified broth microdilution method; type: functional
[7] = test system: Staphylococcus aureus; test: Antibacterial activity against methicillin-resistant Staphylococcus aureus DSM 50128509 after 15 to 18 hrs under aerobic condition by modified broth microdilution method; type: functional
[8] = test system: Klebsiella pneumoniae; test: Antibacterial activity against Klebsiella pneumoniae ATCC 700603; type: functional, organism-based
[9] = test system: Escherichia coli; test: Antibacterial activity against Escherichia coli ATCC 35218; type: functional, organism-based
[10] = test system: Pseudomonas aeruginosa; test: Antibacterial activity against Pseudomonas aeruginosa ATCC 9027; type: functional, organism-based
[11] = test system: Staphylococcus aureus; test: Antibacterial activity against methicillin-resistant Staphylococcus aureus DSM 50128509; type: functional, organism-based
[12] = test system: Staphylococcus epidermidis; test: Antibacterial activity against methicillin-resistant Staphylococcus epidermidis DSM 50160384; type: functional, organism-based
[13] = test system: Candida albicans; test: Antifungal activity against Candida albicans ATCC 10231; type: functional, organism-based

Row | Compound | MIC [1] [µg/mL] | Activity [2] | MIC [3] [µg/mL] | MIC [4] [µg/mL] | MIC [5] [µg/mL] | MIC [6] [µg/mL] | MIC [7] [µg/mL] | IC50 [8] [µg/mL] | IC50 [9] [µg/mL] | IC50 [10] [µg/mL] | IC50 [11] [µg/mL] | IC50 [12] [µg/mL] | IC50 [13] [µg/mL]
1 | COC(=O)[C@H](CCCNC(=N)N)NC(=O)[C@H](Cc1c[nH]c(C2CCC2)n1)NC(=O)OC(C)(C)C | 200 (≈ 417 µM) | Non-toxic | > 200 | > 200 | 200 (≈ 417 µM) | > 200 | > 200 | 15 (≈ 31.2 µM) | 18.1 (≈ 37.8 µM) |  |  |  | 
2 | CC(C)(C)OC(=O)N[C@@H](Cc1c[nH]c(C23CC4CC(CC(C4)C2)C3)n1)C(=O)N[C@@H](CCCNC(=N)N)C(=O)NCc1ccccc1 | > 200 | Non-toxic | 100 (≈ 158 µM) | > 200 | 100 (≈ 158 µM) | 100 (≈ 158 µM) | 20 (≈ 31.5 µM) | 15.1 (≈ 23.8 µM) |  | 27.2 (≈ 42.9 µM) | 7.47 (≈ 11.8 µM) | 11.5 (≈ 18.1 µM) | 
3 | COC(=O)[C@H](CCCNC(=N)N)NC(=O)[C@@H](N)Cc1c[nH]c(C(C)(C)C)n1 | 200 (≈ 524 µM) | Non-toxic | > 200 | 100 (≈ 262 µM) | 200 (≈ 524 µM) | 20 (≈ 52.4 µM) | 20 (≈ 52.4 µM) | 10.5 (≈ 27.6 µM) | 18.5 (≈ 48.4 µM) |  | 5.39 (≈ 14.1 µM) | 2.53 (≈ 6.63 µM) | 9.65 (≈ 25.3 µM)
4 | N=C(N)NCCC[C@H](NC(=O)[C@@H](N)Cc1c[nH]c(C23CC4CC(CC(C4)C2)C3)n1)C(=O)NCc1ccccc1 | 200 (≈ 374 µM) | Non-toxic | > 200 | 50 (≈ 93.5 µM) | 100 (≈ 187 µM) | 10 (≈ 18.7 µM) | 5 (≈ 9.35 µM) | 16.1 (≈ 30.2 µM) | 9.29 (≈ 17.4 µM) |  | 2.15 (≈ 4.02 µM) | 1.19 (≈ 2.23 µM) | 7.46 (≈ 14 µM)
5 | COC(=O)[C@H](CCCNC(=N)N)NC(=O)[C@@H](N)Cc1c[nH]c(C23CC4CC(CC(C4)C2)C3)n1 | > 200 | Non-toxic | 200 (≈ 435 µM) | > 200 | 200 (≈ 435 µM) | 20 (≈ 43.5 µM) | 10 (≈ 21.8 µM) | 19.4 (≈ 42.2 µM) |  | 35.5 (≈ 77.2 µM) | 3.67 (≈ 7.99 µM) | 4.28 (≈ 9.31 µM) | 
6 | CC(C)c1nc(C[C@H](N)C(=O)N[C@@H](CCCNC(=N)N)C(=O)NCc2ccccc2)c[nH]1 | > 200 | Non-toxic | 200 (≈ 452 µM) | > 200 | > 200 | 200 (≈ 452 µM) | 100 (≈ 226 µM) |  |  | 27.8 (≈ 62.7 µM) | 4.85 (≈ 11 µM) | 12.8 (≈ 28.8 µM) | 
7 | CC(C)c1nc(C[C@H](NC(=O)OC(C)(C)C)C(=O)N[C@@H](CCCNC(=N)N)C(=O)NCc2ccccc2)c[nH]1 | 200 (≈ 369 µM) | Non-toxic | 200 (≈ 369 µM) | > 200 | > 200 | 100 (≈ 184 µM) | 100 (≈ 184 µM) |  | 23.7 (≈ 43.7 µM) | 45.1 (≈ 83.2 µM) | 17.9 (≈ 33.1 µM) | 12.7 (≈ 23.3 µM) | 
8 | O=C(O)c1cn(C2CC2)c2cc(N3CCNCC3)c(F)cc2c1=O [CIPROFLOXACIN] |  |  |  |  |  |  |  |  |  | 1.18 (≈ 3.56 µM) |  |  | 
9 | CC(C)(C)OC(=O)N[C@@H](Cc1c[nH]c2ccccc12)C(=O)N[C@@H](Cc1c[nH]cn1)C(=O)NCc1ccccc1 (Boc-Trp-His-NHBn) | > 200 | Non-toxic | 200 (≈ 377 µM) | 200 (≈ 377 µM) | 200 (≈ 377 µM) | 200 (≈ 377 µM) | > 200 | 21.2 (≈ 40 µM) |  | 40.7 (≈ 76.7 µM) |  | 15.6 (≈ 29.4 µM) | 9.7 (≈ 18.3 µM)
10 | COC(=O)[C@H](CCCNC(=N)N)NC(=O)[C@H](Cc1c[nH]c(C23CC4CC(CC(C4)C2)C3)n1)NC(=O)OC(C)(C)C | 100 (≈ 179 µM) | Non-toxic | 100 (≈ 179 µM) | 200 (≈ 357 µM) | 200 (≈ 357 µM) | 50 (≈ 89.3 µM) | 50 (≈ 89.3 µM) | 31.5 (≈ 56.2 µM) | 8.33 (≈ 14.9 µM) | 25.7 (≈ 45.9 µM) | 9.77 (≈ 17.5 µM) | 6.87 (≈ 12.3 µM) | 16.1 (≈ 28.8 µM)
11 | N=C(N)NCCC[C@H](NC(=O)[C@@H](N)Cc1c[nH]c(C2CCCCC2)n1)C(=O)NCc1ccccc1 | 200 (≈ 414 µM) | Non-toxic | > 200 | 200 (≈ 414 µM) | 200 (≈ 414 µM) | 5 (≈ 10.4 µM) | 20 (≈ 41.4 µM) | 23.5 (≈ 48.7 µM) | 17.5 (≈ 36.3 µM) |  | 2.06 (≈ 4.27 µM) | 1 (≈ 2.07 µM) | 18 (≈ 37.3 µM)
12 | N[C@@H](Cc1c[nH]c2ccccc12)C(=O)N[C@@H](Cc1c[nH]c(C23CC4CC(CC(C4)C2)C3)n1)C(=O)NCc1ccccc1 | 200 (≈ 354 µM) | Non-toxic | > 200 | 50 (≈ 88.5 µM) | 200 (≈ 354 µM) | 50 (≈ 88.5 µM) | 100 (≈ 177 µM) | 32 (≈ 56.6 µM) | 21.3 (≈ 37.8 µM) |  | 16 (≈ 28.3 µM) | 4.7 (≈ 8.32 µM) | 8.25 (≈ 14.6 µM)
13 | COC(=O)[C@H](CCCNC(=N)N)NC(=O)[C@H](Cc1c[nH]c(C2CCCCC2)n1)NC(=O)OC(C)(C)C | 100 (≈ 197 µM) | Non-toxic | 200 (≈ 394 µM) | 100 (≈ 197 µM) | > 200 | 100 (≈ 197 µM) | 200 (≈ 394 µM) |  | 4.93 (≈ 9.71 µM) | 27.5 (≈ 54.2 µM) | 10.1 (≈ 19.9 µM) | 10 (≈ 19.7 µM) | 9.44 (≈ 18.6 µM)
